The text below walks through data of the supplement of paper PMC10702517.

The nature of data set [1]: chemical recovery from spiked human plasma; higher = better extraction. The following applies: pooled human plasma.
The nature of data set [2]: chemical recovery into PDMS from spiked human plasma; higher = better extraction. The following applies: pooled human plasma, extraction method: PES with PDMS.
Data set [3] can be described thus: chemical recovery by SPE of plasma after PDMS sampling; higher = better extraction. The following applies: pooled human plasma, extraction method: HLB SPE of plasma after PES.
[4] abbreviates: extraction method: PES+SPE (3 d PDMS equilibration then HLB SPE).
Where [5] appears, read: extraction method: SPE only (HLB 96-well).
The mark [6] stands for this setting: extraction method: SPE only (HLB 96-well), PES comparison experiment.
Where [7] appears, read: extraction method: solvent precipitation (ACN + hexane).

The structures appear in SMILES notation. ± gives the standard deviation.
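For chemical recovery by SPE of plasma after PDMS sampling in this document: over 400 spiked chemicals quantified by LC-HRMS or GC-HRMS via internal standard calibration, recovery relative to spike mix added to unspiked plasma extract to correct matrix effects.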

Turning to `Oc1ccc(Cl)cc1Cc1ccccc1` [Chlorophene], the chemical recovery in data set [1] (setting [4]) was found to be 41.5 ± 3.1%; in data set [1] (setting [5]), 36.9 ± 4.1%; in data set [1] (setting [6]), 48.5 ± 7.9%; in data set [1] (setting [7]), 76.9 ± 7.2%. In addition, the “chemical recovery into PDMS” value in data set [2] (equilibration time (d): 1) turned out to be 13.4 ± 0.41%; in data set [2] (equilibration time (d): 3), 15.4 ± 0.93%; in data set [2] (equilibration time (d): 6), 15 ± 0.42%. Besides, the “chemical recovery by SPE of plasma” value in data set [3] (equilibration time (d): 1) amounted to 36.9 ± 6.1%; in data set [3] (equilibration time (d): 3), 29.2 ± 5.9%; in data set [3] (equilibration time (d): 6), 28.6 ± 5.6%.

For the compound `Cc1ccc(NC(=O)N(C)C)cc1Cl` [Chlorotoluron], the chemical recovery turned out to be 61.6 ± 12% in data set [1] (setting [4]), 46 ± 3.5% in data set [1] (setting [5]), 50.6 ± 6.2% in data set [1] (setting [6]) and 74.4 ± 2.2% in data set [1] (setting [7]). The “chemical recovery into PDMS” value worked out at 32 ± 1.2% in data set [2] (equilibration time (d): 1), 34.9 ± 1.4% in data set [2] (equilibration time (d): 3) and 36.3 ± 0.76% in data set [2] (equilibration time (d): 6). Further, the entries for the “chemical recovery by SPE of plasma” value in data set [3] (equilibration time (d): 1), in data set [3] (equilibration time (d): 3) and in data set [3] (equilibration time (d): 6) were 10.3 ± 0.88%, 9.6 ± 1.2% and 5.83 ± 0.28%, respectively.

With `CN(C)C(=O)Nc1ccc(Oc2ccc(Cl)cc2)cc1` [Chloroxuron], the chemical recovery in data set [1] (setting [5]) stood at 36.4 ± 1.9%; in data set [1] (setting [6]) it was 49.8 ± 7.3%. The “chemical recovery into PDMS” value in data set [2] (equilibration time (d): 1) worked out at 37.3 ± 1.7%; in data set [2] (equilibration time (d): 3), 43.6 ± 2.7%; in data set [2] (equilibration time (d): 6), 42.8 ± 0.94%. The figures for the “chemical recovery by SPE of plasma” value in data set [3] (equilibration time (d): 1), in data set [3] (equilibration time (d): 3) and in data set [3] (equilibration time (d): 6) were 11 ± 2.2%, 7.37 ± 0.66% and 4.53 ± 0.44%, respectively.

`Cc1cc(C2CCCCC2)n(O)c(=O)c1` [Ciclopirox] had a chemical recovery in data set [1] (setting [6]) of 46.2 ± 16%. In addition, the “chemical recovery into PDMS” value came out at 22 ± 5% in data set [2] (equilibration time (d): 1), 20 ± 2.6% in data set [2] (equilibration time (d): 3) and 21.7 ± 2.5% in data set [2] (equilibration time (d): 6). In addition, the “chemical recovery by SPE of plasma” value in data set [3] (equilibration time (d): 1) came out at 2.83 ± 1.3%; in data set [3] (equilibration time (d): 3), 0.638 ± 1.1%; in data set [3] (equilibration time (d): 6), 0.232 ± 0.4%.

Consider `CC(C)(C)C(=O)C(Oc1ccc(Cl)cc1)n1ccnc1` (centres undefined) [Climbazole], for which the chemical recovery came out at 66.5 ± 6.8% in data set [1] (setting [4]), 37.7 ± 2.8% in data set [1] (setting [5]), 46.8 ± 4.8% in data set [1] (setting [6]) and 75.1 ± 3.8% in data set [1] (setting [7]). For the same compound, the “chemical recovery into PDMS” value in data set [2] (equilibration time (d): 1) was found to be 41.2 ± 2.2%; in data set [2] (equilibration time (d): 3), 40 ± 1%; in data set [2] (equilibration time (d): 6), 39.7 ± 1.4%. The entries for the “chemical recovery by SPE of plasma” value in data set [3] (equilibration time (d): 1), in data set [3] (equilibration time (d): 3) and in data set [3] (equilibration time (d): 6) were 1.65 ± 0.14%, 1.11 ± 0.35% and 0.487 ± 0.043%, respectively.

In turn, `CCC(=O)O[C@]1(C(=O)CCl)[C@@H](C)C[C@H]2[C@@H]3CCC4=CC(=O)C=C[C@]4(C)[C@@]3(F)[C@@H](O)C[C@@]21C` [Clobetasol propionate] displayed a chemical recovery in data set [1] (setting [6]) of 44.8 ± 8.7%. Besides, the “chemical recovery into PDMS” value in data set [2] (equilibration time (d): 1) worked out at 28.2 ± 4.4%; in data set [2] (equilibration time (d): 3), 36.9 ± 2.1%; in data set [2] (equilibration time (d): 6) it was 37.2 ± 3.9%. The “chemical recovery by SPE of plasma” value is 5.08 ± 8.8% in data set [3] (equilibration time (d): 1) and 7.02 ± 6.3% in data set [3] (equilibration time (d): 3).

For `C[C@H]1C[C@H]2[C@@H]3CCC4=CC(=O)C=C[C@]4(C)[C@@]3(F)[C@@H](O)C[C@]2(C)[C@@]1(O)C(=O)CCl` [Clobetasol], the chemical recovery in data set [1] (setting [6]) is 49 ± 7.5%. The “chemical recovery into PDMS” value is 1.52 ± 0.65% in data set [2] (equilibration time (d): 1), 4.53 ± 1.1% in data set [2] (equilibration time (d): 3) and 4.86 ± 0.99% in data set [2] (equilibration time (d): 6). Moreover, the “chemical recovery by SPE of plasma” value in data set [3] (equilibration time (d): 3) was 53.2 ± 3.3%.

For the compound `CCOC(=O)C(C)(C)Oc1ccc(Cl)cc1` [Clofibrate], the results for the chemical recovery in data set [1] (setting [5]), in data set [1] (setting [6]) and in data set [1] (setting [7]) were 3.33 ± 1.6%, 44.4 ± 7.8% and 23 ± 10%, respectively. The results for the “chemical recovery into PDMS” value in data set [2] (equilibration time (d): 1), in data set [2] (equilibration time (d): 3) and in data set [2] (equilibration time (d): 6) were 40.3 ± 0.95%, 42.9 ± 4.2% and 43 ± 5.5%, respectively. The “chemical recovery by SPE of plasma” value in data set [3] (equilibration time (d): 3) was determined as 0.676 ± 1.2%.

For `Clc1cccc(Cl)c1NC1=NCCN1` [Clonidine], the chemical recovery was 28.5 ± 5.5% in data set [1] (setting [4]), 41.2 ± 3.6% in data set [1] (setting [5]), 39.6 ± 6.6% in data set [1] (setting [6]) and 60.3 ± 8.8% in data set [1] (setting [7]). For the same compound, the “chemical recovery into PDMS” value in data set [2] (equilibration time (d): 1) amounted to 7.21 ± 0.54%; in data set [2] (equilibration time (d): 3), 8.62 ± 0.81%; in data set [2] (equilibration time (d): 6), 6.38 ± 5.7%. In addition, the “chemical recovery by SPE of plasma” value in data set [3] (equilibration time (d): 1) was 13.4 ± 3.1%; in data set [3] (equilibration time (d): 3), 12.7 ± 1.8%; in data set [3] (equilibration time (d): 6), 12.3 ± 3.9%.

As for `COC(=O)[C@H](c1ccccc1Cl)N1CCc2sccc2C1` [Clopidogrel], the chemical recovery in data set [1] (setting [6]) amounted to 39.3 ± 7.1%; in data set [1] (setting [7]) it was 78.1 ± 6.1%. The figures for the “chemical recovery into PDMS” value in data set [2] (equilibration time (d): 1), in data set [2] (equilibration time (d): 3) and in data set [2] (equilibration time (d): 6) were 26.7 ± 8.6%, 25.5 ± 7.8% and 28.3 ± 5.4%, respectively. Besides, the “chemical recovery by SPE of plasma” value in data set [3] (equilibration time (d): 1) turned out to be 0.677 ± 0.17%; in data set [3] (equilibration time (d): 3) it was 1.02 ± 0.078%; in data set [3] (equilibration time (d): 6), 0.597 ± 0.026%.

Consider `CN/C(=N\[N+](=O)[O-])NCc1cnc(Cl)s1` [Clothianidin], for which the chemical recovery in data set [1] (setting [4]) came to 54 ± 1.1%; in data set [1] (setting [5]) it was 55.1 ± 3.7%; in data set [1] (setting [6]) it was 50.9 ± 5.5%; in data set [1] (setting [7]) it was 75.8 ± 4.7%. The results for the “chemical recovery into PDMS” value in data set [2] (equilibration time (d): 1), in data set [2] (equilibration time (d): 3) and in data set [2] (equilibration time (d): 6) were 0.813 ± 0.031%, 1.39 ± 0.29% and 1.64 ± 0.42%, respectively. Also, the results for the “chemical recovery by SPE of plasma” value in data set [3] (equilibration time (d): 1), in data set [3] (equilibration time (d): 3) and in data set [3] (equilibration time (d): 6) were 59.2 ± 6.8%, 62.2 ± 5.3% and 57 ± 2.6%, respectively.

Take `CN1CCN(C2=Nc3cc(Cl)ccc3Nc3ccccc32)CC1` [Clozapine]: the chemical recovery is 0.74 ± 0.14% in data set [1] (setting [4]), 39.1 ± 3.5% in data set [1] (setting [5]), 27.7 ± 11% in data set [1] (setting [6]) and 68.3 ± 3.6% in data set [1] (setting [7]). For the same compound, the “chemical recovery into PDMS” value in data set [2] (equilibration time (d): 1) was found to be 0.000645 ± 0.0011%. Further, the “chemical recovery by SPE of plasma” value in data set [3] (equilibration time (d): 1) was found to be 1.19 ± 0.08%; in data set [3] (equilibration time (d): 3), 1.11 ± 0.26%; in data set [3] (equilibration time (d): 6) it was 0.544 ± 0.065%.
